Test results published in US11083725B2 (priority 2014, dated 2021).

System: NHBE cells
Experiment: Biolog metabolic array: substrate use by NHBE cells with or without CA09 infection
Format: cell-based, human
Settings: for Substrate use, 590 nm absorbance normalized to zero hour, 0 hr: Biolog PMM2, 0 hr; for Substrate use, 590 nm absorbance normalized to zero hour, 1 hr: Biolog PMM2, 1 hr; for Substrate use, 590 nm absorbance normalized to zero hour, 5 hr: Biolog PMM2, 5 hr; for Substrate use, 590 nm absorbance normalized to zero hour, 7 hr: Biolog PMM2, 7 hr
[1] = Control (uninfected) NHBE cells
[2] = Virus (CA09-infected NHBE cells, MOI 1)
[3] = Virus: CA09-infected NHBE cells, MOI 1, Biolog PMM2
[4] = Virus (CA09, MOI 1) infected NHBE cells
[5] = Virus (CA09-infected, MOI 1) NHBE cells

O=C(CO)[C@@H](O)[C@H](O)[C@@H](O)CO [L-Sorbose]
590 nm absorbance normalized to zero hour (substrate use), 0 hr [1]: 1.00 | 590 nm absorbance normalized to zero hour (substrate use), 1 hr [1]: 1.57 | 590 nm absorbance normalized to zero hour (substrate use), 2 hr [1]: 2.05 | 590 nm absorbance normalized to zero hour (substrate use), 3 hr [1]: 2.28 | 590 nm absorbance normalized to zero hour (substrate use), 4 hr [1]: 2.38 | 590 nm absorbance normalized to zero hour (substrate use), 6 hr [1]: 4.12 | 590 nm absorbance normalized to zero hour (substrate use), 8 hr [1]: 2.81 | 590 nm absorbance normalized to zero hour (substrate use), 9 hr [1]: 2.80 | 590 nm absorbance normalized to zero hour (substrate use), 10 hr [1]: 3.02 | 590 nm absorbance normalized to zero hour (substrate use), 11 hr [1]: 2.98 | Substrate use, 590 nm absorbance normalized to zero hour, 0 hr [1]: 1.00 | Substrate use, 590 nm absorbance normalized to zero hour, 1 hr [1]: 1.57 | Substrate use, 590 nm absorbance normalized to zero hour, 5 hr [1]: 2.79 | Substrate use, 590 nm absorbance normalized to zero hour, 7 hr [1]: 2.84 | 590 nm absorbance normalized to zero hour (substrate use), 0 hr [2]: 1.00 | 590 nm absorbance normalized to zero hour (substrate use), 1 hr [2]: 0.18 | 590 nm absorbance normalized to zero hour (substrate use), 2 hr [2]: 0.23 | 590 nm absorbance normalized to zero hour (substrate use), 3 hr [2]: 0.26 | 590 nm absorbance normalized to zero hour (substrate use), 4 hr [2]: 0.28 | 590 nm absorbance normalized to zero hour (substrate use), 5 hr [2]: 0.32 | 590 nm absorbance normalized to zero hour (substrate use), 6 hr [2]: 0.34 | 590 nm absorbance normalized to zero hour (substrate use), 7 hr [2]: 0.37 | 590 nm absorbance normalized to zero hour (substrate use), 8 hr [2]: 0.38 | 590 nm absorbance normalized to zero hour (substrate use), 9 hr [2]: 0.41 | 590 nm absorbance normalized to zero hour (substrate use), 10 hr [2]: 0.41 | 590 nm absorbance normalized to zero hour (substrate use), 11 hr [2]: 0.48 | 590 nm absorbance normalized to zero hour (substrate use), 0 hr [3]: 1.00 | 590 nm absorbance normalized to zero hour (substrate use), 1 hr [3]: 0.18 | 590 nm absorbance normalized to zero hour (substrate use), 2 hr [3]: 0.23 | 590 nm absorbance normalized to zero hour (substrate use), 3 hr [3]: 0.26 | 590 nm absorbance normalized to zero hour (substrate use), 4 hr [3]: 0.28 | 590 nm absorbance normalized to zero hour (substrate use), 5 hr [3]: 0.32 | 590 nm absorbance normalized to zero hour (substrate use), 6 hr [3]: 0.34 | 590 nm absorbance normalized to zero hour (substrate use), 7 hr [3]: 0.37 | 590 nm absorbance normalized to zero hour (substrate use), 8 hr [3]: 0.38 | 590 nm absorbance normalized to zero hour (substrate use), 9 hr [3]: 0.41 | 590 nm absorbance normalized to zero hour (substrate use), 10 hr [3]: 0.41 | 590 nm absorbance normalized to zero hour (substrate use), 11 hr [3]: 0.48

OC[C@@H](O)[C@@H](O[C@@H]1O[C@H](CO)[C@H](O)[C@H](O)[C@H]1O)[C@H](O)[C@@H](O)CO [Lactitol]
590 nm absorbance normalized to zero hour (substrate use), 1 hr [1]: 0.19 | 590 nm absorbance normalized to zero hour (substrate use), 2 hr [1]: 0.26 | 590 nm absorbance normalized to zero hour (substrate use), 3 hr [1]: 0.31 | 590 nm absorbance normalized to zero hour (substrate use), 4 hr [1]: 0.33 | 590 nm absorbance normalized to zero hour (substrate use), 6 hr [1]: 0.40 | 590 nm absorbance normalized to zero hour (substrate use), 8 hr [1]: 0.47 | 590 nm absorbance normalized to zero hour (substrate use), 9 hr [1]: 0.50 | 590 nm absorbance normalized to zero hour (substrate use), 10 hr [1]: 0.55 | 590 nm absorbance normalized to zero hour (substrate use), 11 hr [1]: 0.62 | Substrate use, 590 nm absorbance normalized to zero hour, 1 hr [1]: 0.19 | Substrate use, 590 nm absorbance normalized to zero hour, 5 hr [1]: 0.39 | Substrate use, 590 nm absorbance normalized to zero hour, 7 hr [1]: 0.44 | Substrate use, 590 nm absorbance normalized to zero hour, 1 hr [4]: 1.61 | Substrate use, 590 nm absorbance normalized to zero hour, 5 hr [4]: 3.16 | Substrate use, 590 nm absorbance normalized to zero hour, 7 hr [4]: 3.55 | 590 nm absorbance normalized to zero hour (substrate use), 1 hr [5]: 1.61 | 590 nm absorbance normalized to zero hour (substrate use), 2 hr [5]: 2.20 | 590 nm absorbance normalized to zero hour (substrate use), 3 hr [5]: 2.54 | 590 nm absorbance normalized to zero hour (substrate use), 4 hr [5]: 2.73 | 590 nm absorbance normalized to zero hour (substrate use), 6 hr [5]: 3.38 | 590 nm absorbance normalized to zero hour (substrate use), 8 hr [5]: 3.76 | 590 nm absorbance normalized to zero hour (substrate use), 9 hr [5]: 4.11 | 590 nm absorbance normalized to zero hour (substrate use), 10 hr [5]: 4.31 | 590 nm absorbance normalized to zero hour (substrate use), 11 hr [5]: 4.66

OC[C@@H](O)[C@@H](O[C@H]1O[C@H](CO)[C@@H](O)[C@H](O)[C@H]1O)[C@H](O)[C@@H](O)CO [Maltitol]
590 nm absorbance normalized to zero hour (substrate use), 0 hr [1]: 1.00 | 590 nm absorbance normalized to zero hour (substrate use), 1 hr [1]: 1.76 | 590 nm absorbance normalized to zero hour (substrate use), 2 hr [1]: 2.36 | 590 nm absorbance normalized to zero hour (substrate use), 3 hr [1]: 2.82 | 590 nm absorbance normalized to zero hour (substrate use), 4 hr [1]: 3.07 | 590 nm absorbance normalized to zero hour (substrate use), 6 hr [1]: 3.52 | 590 nm absorbance normalized to zero hour (substrate use), 8 hr [1]: 4.77 | 590 nm absorbance normalized to zero hour (substrate use), 9 hr [1]: 5.77 | 590 nm absorbance normalized to zero hour (substrate use), 10 hr [1]: 5.24 | 590 nm absorbance normalized to zero hour (substrate use), 11 hr [1]: 5.98 | Substrate use, 590 nm absorbance normalized to zero hour, 0 hr [1]: 1.00 | Substrate use, 590 nm absorbance normalized to zero hour, 1 hr [1]: 1.76 | Substrate use, 590 nm absorbance normalized to zero hour, 5 hr [1]: 3.80 | Substrate use, 590 nm absorbance normalized to zero hour, 7 hr [1]: 4.49 | 590 nm absorbance normalized to zero hour (substrate use), 0 hr [2]: 1.00 | 590 nm absorbance normalized to zero hour (substrate use), 1 hr [2]: 1.05 | 590 nm absorbance normalized to zero hour (substrate use), 2 hr [2]: 1.03 | 590 nm absorbance normalized to zero hour (substrate use), 3 hr [2]: 1.37 | 590 nm absorbance normalized to zero hour (substrate use), 4 hr [2]: 0.98 | 590 nm absorbance normalized to zero hour (substrate use), 5 hr [2]: 0.88 | 590 nm absorbance normalized to zero hour (substrate use), 6 hr [2]: 0.89 | 590 nm absorbance normalized to zero hour (substrate use), 7 hr [2]: 0.92 | 590 nm absorbance normalized to zero hour (substrate use), 8 hr [2]: 0.96 | 590 nm absorbance normalized to zero hour (substrate use), 9 hr [2]: 1.01 | 590 nm absorbance normalized to zero hour (substrate use), 10 hr [2]: 1.08 | 590 nm absorbance normalized to zero hour (substrate use), 11 hr [2]: 1.16 | 590 nm absorbance normalized to zero hour (substrate use), 0 hr [3]: 1.00 | 590 nm absorbance normalized to zero hour (substrate use), 1 hr [3]: 1.05 | 590 nm absorbance normalized to zero hour (substrate use), 2 hr [3]: 1.03 | 590 nm absorbance normalized to zero hour (substrate use), 3 hr [3]: 1.37 | 590 nm absorbance normalized to zero hour (substrate use), 4 hr [3]: 0.98 | 590 nm absorbance normalized to zero hour (substrate use), 5 hr [3]: 0.88 | 590 nm absorbance normalized to zero hour (substrate use), 6 hr [3]: 0.89 | 590 nm absorbance normalized to zero hour (substrate use), 7 hr [3]: 0.92 | 590 nm absorbance normalized to zero hour (substrate use), 8 hr [3]: 0.96 | 590 nm absorbance normalized to zero hour (substrate use), 9 hr [3]: 1.01 | 590 nm absorbance normalized to zero hour (substrate use), 10 hr [3]: 1.08 | 590 nm absorbance normalized to zero hour (substrate use), 11 hr [3]: 1.16

OCC1OC(OC2C(CO)OC(OC3C(CO)OC(O)C(O)C3O)C(O)C2O)C(O)C(O)C1O (stereo not drawn) [Malto-triose]
590 nm absorbance normalized to zero hour (substrate use), 0 hr [1]: 1.00 | 590 nm absorbance normalized to zero hour (substrate use), 1 hr [1]: 2.27 | 590 nm absorbance normalized to zero hour (substrate use), 2 hr [1]: 3.36 | 590 nm absorbance normalized to zero hour (substrate use), 3 hr [1]: 4.16 | 590 nm absorbance normalized to zero hour (substrate use), 4 hr [1]: 4.58 | 590 nm absorbance normalized to zero hour (substrate use), 6 hr [1]: 5.62 | 590 nm absorbance normalized to zero hour (substrate use), 8 hr [1]: 7.97 | 590 nm absorbance normalized to zero hour (substrate use), 9 hr [1]: 7.32 | 590 nm absorbance normalized to zero hour (substrate use), 10 hr [1]: 6.88 | 590 nm absorbance normalized to zero hour (substrate use), 11 hr [1]: 8.46 | Substrate use, 590 nm absorbance normalized to zero hour, 0 hr [1]: 1.00 | Substrate use, 590 nm absorbance normalized to zero hour, 1 hr [1]: 2.27 | Substrate use, 590 nm absorbance normalized to zero hour, 5 hr [1]: 6.09 | Substrate use, 590 nm absorbance normalized to zero hour, 7 hr [1]: 7.39 | 590 nm absorbance normalized to zero hour (substrate use), 0 hr [5]: 1.00 | 590 nm absorbance normalized to zero hour (substrate use), 1 hr [5]: 2.01 | 590 nm absorbance normalized to zero hour (substrate use), 2 hr [5]: 3.05 | 590 nm absorbance normalized to zero hour (substrate use), 3 hr [5]: 3.70 | 590 nm absorbance normalized to zero hour (substrate use), 4 hr [5]: 4.08 | 590 nm absorbance normalized to zero hour (substrate use), 5 hr [5]: 5.20 | 590 nm absorbance normalized to zero hour (substrate use), 6 hr [5]: 5.81 | 590 nm absorbance normalized to zero hour (substrate use), 7 hr [5]: 6.29 | 590 nm absorbance normalized to zero hour (substrate use), 8 hr [5]: 6.78 | 590 nm absorbance normalized to zero hour (substrate use), 9 hr [5]: 7.44 | 590 nm absorbance normalized to zero hour (substrate use), 10 hr [5]: 6.04 | 590 nm absorbance normalized to zero hour (substrate use), 11 hr [5]: 6.50 | 590 nm absorbance normalized to zero hour (substrate use), 0 hr [3]: 1.00 | 590 nm absorbance normalized to zero hour (substrate use), 1 hr [3]: 2.01 | 590 nm absorbance normalized to zero hour (substrate use), 2 hr [3]: 3.05 | 590 nm absorbance normalized to zero hour (substrate use), 3 hr [3]: 3.70 | 590 nm absorbance normalized to zero hour (substrate use), 4 hr [3]: 4.08 | 590 nm absorbance normalized to zero hour (substrate use), 5 hr [3]: 5.20 | 590 nm absorbance normalized to zero hour (substrate use), 6 hr [3]: 5.81 | 590 nm absorbance normalized to zero hour (substrate use), 7 hr [3]: 6.29 | 590 nm absorbance normalized to zero hour (substrate use), 8 hr [3]: 6.78 | 590 nm absorbance normalized to zero hour (substrate use), 9 hr [3]: 7.44 | 590 nm absorbance normalized to zero hour (substrate use), 10 hr [3]: 6.04 | 590 nm absorbance normalized to zero hour (substrate use), 11 hr [3]: 6.50
